Source: ChEMBL document CHEMBL3621049, “Imidazole derivatives show anticancer potential by inducing apoptosis and cellular senescence” (2014)
Activity calls are given as the source filed them. The rule behind the calls is not given here.

Experiments:
A549 [1] = test: Growth inhibition of human A549/ATCC cells at 10 uM by sulforhodamine B assay; assay type: functional, cell-based
UO-31 = test: Growth inhibition of human UO31 cells at 10 uM by sulforhodamine B assay; assay type: functional, cell-based
SF-295 = test: Growth inhibition of human SF295 cells at 10 uM by sulforhodamine B assay; assay type: functional, cell-based
IGROV-1 = test: Growth inhibition of human IGROV1 cells at 10 uM by sulforhodamine B assay; assay type: functional, cell-based
A549 [2] = test: Cell cycle arrest in human A549 cells assessed as accumulation at sub-G1 phase at 10 uM after 48 hrs using propidium iodide staining by flow cytometer analysis (reference value: 0.96%); assay type: functional
HOP-92 = test: Growth inhibition of human HOP92 cells at 10 uM by sulforhodamine B assay; assay type: functional, cell-based
A549 [3] = test: Cytotoxicity against human A549 cells assessed as decrease in cell viability at 10 uM after 24 hrs by MTT assay relative to control; assay type: functional
HCC 2998 = test: Growth inhibition of human HCC2998 cells at 10 uM by sulforhodamine B assay; assay type: functional, cell-based
SNB-19 = test: Growth inhibition of human SNB19 cells at 10 uM by sulforhodamine B assay; assay type: functional, cell-based
TK-10 = test: Growth inhibition of human TK10 cells at 10 uM by sulforhodamine B assay; assay type: functional, cell-based
786-0 = test: Growth inhibition of human 786-0 cells at 10 uM by sulforhodamine B assay; assay type: functional, cell-based
PC-3 = test: Growth inhibition of human PC3 cells at 10 uM by sulforhodamine B assay; assay type: functional, cell-based
A549 [4] = test: Induction of apoptosis in human A549 cells assessed as activation of caspase; assay type: functional, cell-based
SN12C = test: Growth inhibition of human SN12C cells at 10 uM by sulforhodamine B assay; assay type: functional, cell-based
M14 = test: Growth inhibition of human M14 cells at 10 uM by sulforhodamine B assay; assay type: functional, cell-based
BT-549 = test: Growth inhibition of human BT549 cells at 10 uM by sulforhodamine B assay; assay type: functional, cell-based
HOP-62 = test: Growth inhibition of human HOP62 cells at 10 uM by sulforhodamine B assay; assay type: functional, cell-based
A498 = test: Growth inhibition of human A498 cells at 10 uM by sulforhodamine B assay; assay type: functional, cell-based
SK-MEL-2 = test: Growth inhibition of human SK-MEL-2 cells at 10 uM by sulforhodamine B assay; assay type: functional, cell-based
NCI-H522 = test: Growth inhibition of human NCI-H522 cells at 10 uM by sulforhodamine B assay; assay type: functional, cell-based
A549 [5] = test: Inhibition of colony formation in human A549 cells assessed as change in colony morphology after 14 days using crystal violet staining by soft agar assay; assay type: functional, cell-based
A549 [6] = test: Cell cycle arrest in human A549 cells assessed as accumulation at G0/G1 phase at 10 uM after 48 hrs using propidium iodide staining by flow cytometer analysis (reference value: 79.34%); assay type: functional
OVCAR-3 = test: Growth inhibition of human OVCAR3 cells at 10 uM by sulforhodamine B assay; assay type: functional, cell-based
Hs-578T = test: Growth inhibition of human Hs 578T cells at 10 uM by sulforhodamine B assay; assay type: functional, cell-based
SF-539 = test: Growth inhibition of human SF539 cells at 10 uM by sulforhodamine B assay; assay type: functional, cell-based
A549 [7] = test: Induction of cellular senescence in human A549 cells assessed as increase of endogenous level of beta-galactosidase by […]/X-gal staining; assay type: functional, cell-based
A549 [8] = test: Inhibition of cell migration in human A549 cells assessed as cells migrating into scratch area after 24 hrs by wound healing assay; assay type: functional, cell-based
A549 [9] = test: Cell cycle arrest in human A549 cells assessed as accumulation at G0/G1 phase at 20 uM after 48 hrs using propidium iodide staining by flow cytometer analysis (reference value: 79.34%); assay type: functional
A549 [10] = test: Cell cycle arrest in human A549 cells assessed as accumulation at G2/M phase at 20 uM after 48 hrs using propidium iodide staining by flow cytometer analysis (reference value: 13.02%); assay type: functional
RPMI-8226 = test: Growth inhibition of human RPMI8226 cells at 10 uM by sulforhodamine B assay; assay type: functional, cell-based
OVCAR-8 = test: Growth inhibition of human OVCAR8 cells at 10 uM by sulforhodamine B assay; assay type: functional, cell-based
MOLT-4 = test: Growth inhibition of human MOLT4 cells at 10 uM by sulforhodamine B assay; assay type: functional, cell-based
K562 = test: Growth inhibition of human K562 cells at 10 uM by sulforhodamine B assay; assay type: functional, cell-based
SK-MEL-28 = test: Growth inhibition of human SK-MEL-28 cells at 10 uM by sulforhodamine B assay; assay type: functional, cell-based
HL-60(TB) = test: Growth inhibition of human HL-60(TB) cells at 10 uM by sulforhodamine B assay; assay type: functional, cell-based
HCT-15 = test: Growth inhibition of human HCT15 cells at 10 uM by sulforhodamine B assay; assay type: functional, cell-based
UACC-257 = test: Growth inhibition of human UACC257 cells at 10 uM by sulforhodamine B assay; assay type: functional, cell-based
A549 [11] = test: Cytotoxicity against human A549 cells assessed as decrease in cell viability up to 72 hrs by MTT assay; assay type: functional, cell-based
T47D = test: Growth inhibition of human T47D cells at 10 uM by sulforhodamine B assay; assay type: functional, cell-based
A549 [12] = test: Cell cycle arrest in human A549 cells assessed as accumulation at G2/M phase at 5 uM after 48 hrs using propidium iodide staining by flow cytometer analysis (reference value: 13.02%); assay type: functional
SK-MEL-5 = test: Growth inhibition of human SK-MEL-5 cells at 10 uM by sulforhodamine B assay; assay type: functional, cell-based
OVCAR-4 = test: Growth inhibition of human OVCAR4 cells at 10 uM by sulforhodamine B assay; assay type: functional, cell-based
A549 [13] = test: Cell cycle arrest in human A549 cells assessed as accumulation at sub-G1 phase at 5 uM after 48 hrs using propidium iodide staining by flow cytometer analysis (reference value: 0.96%); assay type: functional
UACC-62 = test: Growth inhibition of human UACC62 cells at 10 uM by sulforhodamine B assay; assay type: functional, cell-based
MDA-MB-435 = test: Growth inhibition of human MDA-MB-435 cells at 10 uM by sulforhodamine B assay; assay type: functional, cell-based
MCF7 = test: Growth inhibition of human MCF7 cells at 10 uM by sulforhodamine B assay; assay type: functional, cell-based
Malme-3M = test: Growth inhibition of human MALME-3M cells at 10 uM by sulforhodamine B assay; assay type: functional, cell-based
NCI-H322M = test: Growth inhibition of human NCI-H322M cells at 10 uM by sulforhodamine B assay; assay type: functional, cell-based
RXF 393 = test: Growth inhibition of human RXF393 cells at 10 uM by sulforhodamine B assay; assay type: functional, cell-based
A549 [14] = test: Induction of morphological changes in human A549 cells at 10 to 50 uM; assay type: functional, cell-based
NCI-H226 = test: Growth inhibition of human NCI-H226 cells at 10 uM by sulforhodamine B assay; assay type: functional, cell-based

## COc1ccc(-c2nc(-c3ccccn3)c(-c3ccccn3)n2CC(C)C)cc1OC1CCCC1
A549 [1]
  growth inhibition (GI): Active
UO-31
  growth inhibition (GI): Active
SF-295
  growth inhibition (GI): Active
IGROV-1
  growth inhibition (GI): Active
A549 [2]
  Activity: 7.63%
HOP-92
  growth inhibition (GI): Active
A549 [3]
  fold change (FC): 2
HCC 2998
  growth inhibition (GI): Active
SNB-19
  growth inhibition (GI): Active
TK-10
  growth inhibition (GI): Active
786-0
  growth inhibition (GI): Active
PC-3
  growth inhibition (GI): Active
A549 [4]
  Activity: inactive
SN12C
  growth inhibition (GI): Active
M14
  growth inhibition (GI): Active
BT-549
  growth inhibition (GI): Active
HOP-62
  growth inhibition (GI): Active
A498
  growth inhibition (GI): Active
SK-MEL-2
  growth inhibition (GI): Active
NCI-H522
  growth inhibition (GI): Active
A549 [5]
  inhibition: Active
A549 [6]
  Activity: 75.7%
OVCAR-3
  growth inhibition (GI): Active
Hs-578T
  growth inhibition (GI): Active
SF-539
  growth inhibition (GI): Active
A549 [7]
  Activity: Dose-dependent effect
A549 [8]
  inhibition: Dose-dependent effect
A549 [9]
  Activity: 69.52%
A549 [10]
  Activity: 4.51%
RPMI-8226
  growth inhibition (GI): Active
OVCAR-8
  growth inhibition (GI): Active
MOLT-4
  growth inhibition (GI): Active
K562
  growth inhibition (GI): Active
SK-MEL-28
  growth inhibition (GI): Active
HL-60(TB)
  growth inhibition (GI): Active
HCT-15
  growth inhibition (GI): Active
UACC-257
  growth inhibition (GI): Active
A549 [11]
  Activity: Dose-dependent effect
T47D
  growth inhibition (GI): Active
A549 [12]
  Activity: 4.65%
SK-MEL-5
  growth inhibition (GI): Active
OVCAR-4
  growth inhibition (GI): Active
A549 [13]
  Activity: 2.49%
UACC-62
  growth inhibition (GI): Active
MDA-MB-435
  growth inhibition (GI): Active
MCF7
  growth inhibition (GI): Active
Malme-3M
  growth inhibition (GI): Active
NCI-H322M
  growth inhibition (GI): Active
RXF 393
  growth inhibition (GI): Active
A549 [14]
  Activity: Active
NCI-H226
  growth inhibition (GI): Active
